The values below come from paper PMC9958709 (Pharmaceuticals, 2023).

Assay [1] addresses acetylcholinesterase (AChE) (Homo sapiens, UniProt P22303). The assay can be described thus: biochemical. It counts as biochemical. Conditions: for IC50: read-out: AChE IC50 (µM ± SEM). As for the experimental part: (§1) The AChE/(BuChE) inhibitory test was measured using a spectrophotometric method developed by Elman et al.. A buffer solution containing phosphate (pH 8.0) of volume 140 μL; 20 μL of each AChE/BuChE solution; and 20 μL of the test sample were incubated at room temperature for 15 min. […] was used to start the reaction, followed by the addition of DTNB. ATCh or BTCh hydrolyzed the reaction of DTNB with thiocholine for 15 min; unrestricted by AChE and BuChE enzymatic hydrolysis. […] Each sample’s inhibitory activity was measured in terms of IC50 ([…]) or μM. For all substances, the IC50 values were derived using a generic graph.

The target of assay [2] is butyrylcholinesterase (BuChE) (Homo sapiens, UniProt P06276). The assay can be described thus: biochemical. Conditions: for IC50: read-out: BuChE IC50 (µM ± SEM). It counts as biochemical. As for the experimental part:
as §1

Chain of acetylcholinesterase (AChE) (P22303 32-614, species assumed): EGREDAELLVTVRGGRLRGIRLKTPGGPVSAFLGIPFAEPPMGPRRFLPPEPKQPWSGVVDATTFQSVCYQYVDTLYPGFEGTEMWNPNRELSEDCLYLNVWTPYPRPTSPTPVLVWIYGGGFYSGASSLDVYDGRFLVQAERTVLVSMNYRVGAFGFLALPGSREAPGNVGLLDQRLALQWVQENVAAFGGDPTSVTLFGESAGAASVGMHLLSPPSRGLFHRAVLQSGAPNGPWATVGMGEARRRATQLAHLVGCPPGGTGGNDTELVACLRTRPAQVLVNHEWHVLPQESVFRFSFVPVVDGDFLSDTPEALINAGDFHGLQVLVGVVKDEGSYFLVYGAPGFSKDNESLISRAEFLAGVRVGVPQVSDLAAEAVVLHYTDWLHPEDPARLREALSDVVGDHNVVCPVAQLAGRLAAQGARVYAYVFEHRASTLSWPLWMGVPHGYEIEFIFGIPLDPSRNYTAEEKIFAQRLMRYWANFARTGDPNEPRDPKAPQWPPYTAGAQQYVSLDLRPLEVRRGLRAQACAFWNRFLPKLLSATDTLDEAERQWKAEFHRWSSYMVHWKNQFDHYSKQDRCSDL
Chain of butyrylcholinesterase (BuChE) (P06276 29-602): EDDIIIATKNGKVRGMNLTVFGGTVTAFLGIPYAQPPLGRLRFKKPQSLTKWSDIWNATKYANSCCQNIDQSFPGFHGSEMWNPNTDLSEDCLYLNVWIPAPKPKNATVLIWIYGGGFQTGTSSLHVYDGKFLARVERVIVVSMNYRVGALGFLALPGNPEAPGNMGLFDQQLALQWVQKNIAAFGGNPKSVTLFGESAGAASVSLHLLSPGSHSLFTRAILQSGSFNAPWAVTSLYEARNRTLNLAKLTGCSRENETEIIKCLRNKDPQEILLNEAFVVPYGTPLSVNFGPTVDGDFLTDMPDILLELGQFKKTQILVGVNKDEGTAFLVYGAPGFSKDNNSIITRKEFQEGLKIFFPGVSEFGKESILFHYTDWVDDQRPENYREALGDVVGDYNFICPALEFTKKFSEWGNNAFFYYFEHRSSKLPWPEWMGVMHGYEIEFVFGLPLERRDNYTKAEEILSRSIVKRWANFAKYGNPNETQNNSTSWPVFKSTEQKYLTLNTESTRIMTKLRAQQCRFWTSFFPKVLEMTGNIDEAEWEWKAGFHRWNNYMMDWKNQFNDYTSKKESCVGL

In the case of `COc1ccc2[nH]c(-c3cc(Br)ccc3OC)nc2c1` [Compound 17], the IC50 stood at 6.1 ± 0.1 µM in assay [1] and 3.9 ± 0.1 µM in assay [2].
The matching figures for `COc1ccc2[nH]c(-c3ccc(Cl)cc3Cl)nc2c1` [Compound 11]: 0.2 ± 0.001 µM and 0.3 ± 0.001 µM.
With `COc1ccc2[nH]c(-c3c(O)ccc4ccccc34)nc2c1` [Compound 14], the “inhibition of acetylcholinesterase, in words” value in assay [1] is “did not show any activity”. In addition, in assay [2], the “inhibition of butyrylcholinesterase, in words” value is given as “did not show any activity”.
`COc1ccc2[nH]c(-c3ccc(OCc4ccccc4)cc3)nc2c1` [Compound 7]: the IC50 in assay [1] came to 5.8 ± 0.1 µM; in assay [2] it was 5.9 ± 0.1 µM.
The matching figures for `COc1ccc2[nH]c(-c3ccc(C)cc3C)nc2c1` [Compound 6]: 4.1 ± 0.1 µM and 5.1 ± 0.2 µM.
In the same order, the values of `COc1ccc2[nH]c(-c3ccc(N(C)C)cc3)nc2c1` [Compound 8] are 6.8 ± 0.2 µM and 4.7 ± 0.1 µM.
In the case of `COc1ccc2[nH]c(-c3cc(OC)c(Br)cc3OC)nc2c1` [Compound 20], the “inhibition of acetylcholinesterase, in words” value in assay [1] is on record as “did not show any activity”. The “inhibition of butyrylcholinesterase, in words” value in assay [2] is on record as “did not show any activity”.
For the compound `COc1ccc2[nH]c(-c3ccc(OC)c(O)c3)nc2c1` [Compound 9], the values for the IC50 in assay [1] and in assay [2] were 2.3 ± 0.1 µM and 2.1 ± 0.1 µM, respectively.
The matching figures for `CCOc1ccc(-c2nc3cc(OC)ccc3[nH]2)cc1OC` [Compound 18]: 11.3 ± 0.3 µM and 9.8 ± 0.3 µM.
In the same order, the values of `COc1ccc2[nH]c(-c3cccc([N+](=O)[O-])c3)nc2c1` [Compound 2, 5-Methoxy-2-(3-Nitrophenyl)-1H-Benzo[d]-Imidazole] are 5.1 ± 0.1 µM and 5.9 ± 0.1 µM.
The matching figures for `COc1ccc2[nH]c(-c3cc(Cl)cc(Cl)c3O)nc2c1` [Compound 10]: 0.1 ± 0.001 µM and 0.4 ± 0.001 µM.
Take `COc1ccc2[nH]c(-c3ccc(Cl)c(Cl)c3)nc2c1` [Compound 3]: the results for the IC50 in assay [1] and in assay [2] were 0.05 ± 0.001 µM and 0.08 ± 0.001 µM, respectively.
Take `COc1ccc2[nH]c(-c3ccc([N+](=O)[O-])cc3)nc2c1` [Compound 1, 5-Methoxy-2-(4-Nitrophenyl)-1H-Benzo[d]-Imidazole]: the IC50 in assay [1] was 2.1 ± 0.1 µM; in assay [2] it was 1.6 ± 0.1 µM.
With `COc1ccc2[nH]c(-c3ccc(O)cc3)nc2c1` [Compound 15], the IC50 worked out at 0.8 ± 0.001 µM in assay [1] and 0.9 ± 0.001 µM in assay [2].
The matching figures for `COc1ccc(-c2nc3cc(OC)ccc3[nH]2)c(OC)c1` [Compound 19]: 9.2 ± 0.2 µM and 6.8 ± 0.2 µM.
In the same order, the values of `COc1ccc2[nH]c(-c3ccc4ccccc4c3)nc2c1` [Compound 5] are 25.3 ± 0.4 µM and 25.8 ± 0.4 µM.
In the same order, the values of `COc1ccc2nc(-c3ccc(-c4nc5ccc(OC)cc5[nH]4)cc3)[nH]c2c1` [Compound 12] are 5.1 ± 0.1 µM and 5.8 ± 0.1 µM.
Turning to `COc1ccc2[nH]c(-c3cccc(O)c3)nc2c1` [Compound 16], the IC50 in assay [1] came to 1.3 ± 0.1 µM; in assay [2], 2.1 ± 0.1 µM.
On to `COc1ccc2[nH]c(-c3cc(OC)c(O)c(OC)c3)nc2c1` [Compound 21], for which the results for the half-inhibitory concentration (IC50) in assay [1] and in assay [2] were 2.1 ± 0.1 µM and 2.7 ± 0.1 µM, respectively.
For the compound `COc1ccc2[nH]c(-c3c4ccccc4cc4ccccc34)nc2c1` [Compound 13], in assay [1], the “inhibition of acetylcholinesterase, in words” value is recorded as “did not show any activity”. In assay [2], the “inhibition of butyrylcholinesterase, in words” value is reported as “did not show any activity”.
As to `COc1ccc2[nH]c(-c3ccccc3[N+](=O)[O-])nc2c1` [Compound 4], the IC50 is 3.4 ± 0.1 µM in assay [1] and 3.6 ± 0.1 µM in assay [2].
